Results published in PubChem BioAssay (NCI).
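48-hour exposure; five concentrations; linearly interpolated endpoints. Abbreviation: GI50, concentration required for 50% inhibition of growth. Definition used: TGI = concentration required for complete inhibition of growth.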

How the values were obtained:
Assay in all cases: NCI-60 cell line screen, 48 h
[1] = test system: MDA-MB-435
[2] = test system: OVCAR-8 ovarian
[3] = test system: NCI/ADR-RES ovarian
[4] = test system: SNB-75 CNS
[5] = test system: EKVX NSCLC
[6] = test system: U251 CNS
[7] = test system: NCI-H460 lung
[8] = test system: M14 melanoma
[9] = test system: 786-0 renal
[10] = test system: MDA-MB-231 breast
[11] = test system: SK-MEL-2 melanoma
[12] = test system: DU-145 prostate
[13] = test system: K-562 leukemia
[14] = test system: T-47D breast
[15] = test system: NCI-H522 lung
[16] = test system: SNB-19 CNS
[17] = test system: SK-MEL-28 melanoma
[18] = test system: HL-60(TB) leukemia
[19] = test system: LOX IMVI melanoma
[20] = test system: SN12C renal
[21] = test system: HT29 colon
[22] = test system: UACC-257 melanoma
[23] = test system: ACHN renal
[24] = test system: SW-620 colon
[25] = test system: SF-268 CNS
[26] = test system: CCRF-CEM leukemia
[27] = test system: PC-3 prostate
[28] = test system: BT-549 breast
[29] = test system: HOP-92 NSCLC
[30] = test system: RPMI-8226 leukemia
[31] = test system: HCC-2998 colon
[32] = test system: RXF 393 renal
[33] = test system: A498 renal
[34] = test system: A549 NSCLC
[35] = test system: IGROV1 ovarian
[36] = test system: OVCAR-4 ovarian
[37] = test system: SK-MEL-5 melanoma
[38] = test system: HCT-15 colon
[39] = test system: UO-31 renal
[40] = test system: CAKI-1 renal
[41] = test system: MCF7 breast
[42] = test system: MOLT-4 leukemia
[43] = test system: NCI-H23 lung
[44] = test system: COLO 205 colon
[45] = test system: SF-295 CNS
[46] = test system: HCT-116 colon
[47] = test system: NCI-H226 lung
[48] = test system: HS 578T breast
[49] = test system: SR leukemia
[50] = test system: KM12 colon
[51] = test system: OVCAR-5 ovarian
[52] = test system: SF-539 CNS
[53] = test system: TK-10 renal
[54] = test system: MALME-3M melanoma
[55] = test system: UACC-62 melanoma
[56] = test system: OVCAR-3 ovarian
[57] = test system: HOP-62 NSCLC

With `Clc1nc(Cl)c2ncn(Cc3cccc(Cn4cnc5c(Cl)nc(Cl)nc54)c3)c2n1` the GI50 [1] was 7.29 µM, the TGI [1] was 22.2 µM and the GI50 [2] was 4.67 µM. The TGI [2] was 18.6 µM, the GI50 [3] was 12.5 µM and the TGI [3] was 35 µM. It also gave a GI50 [4] of 5.58 µM, a TGI [4] of 22.6 µM and a GI50 [5] of 3.09 µM. It also gave a TGI [5] of 11 µM, a GI50 [6] of 3.91 µM and a TGI [6] of 13.9 µM. The GI50 [7] was 3.7 µM, the TGI [7] was 13.6 µM and the GI50 [8] was 2.77 µM. For the same compound, the TGI [8] was 7.65 µM, the GI50 [9] was 12.3 µM and the TGI [9] was 26.6 µM. The GI50 [10] was 2.66 µM, the TGI [10] was 7 µM and the GI50 [11] was 2.79 µM. The TGI [11] was 7.72 µM, the GI50 [12] was 1.72 µM and the TGI [12] was 3.09 µM. For the same compound, the GI50 [13] was 3.11 µM, the TGI [13] was 17.1 µM and the GI50 [14] was 3.01 µM. The TGI [14] was 8.43 µM, the GI50 [15] was 2.9 µM and the TGI [15] was 7.01 µM. The GI50 [16] was 3.02 µM, the TGI [16] was 13.7 µM and the GI50 [17] was 4.25 µM. The TGI [17] was 22.1 µM, the GI50 [18] was 2.9 µM and the TGI [18] was 82.8 µM. The GI50 [19] was 2.23 µM, the TGI [19] was 5.57 µM and the GI50 [20] was 4.73 µM. For the same compound, the TGI [20] was 18.3 µM, the GI50 [21] was 4.42 µM and the TGI [21] was > 100 µM. For the same compound, the GI50 [22] was 4.78 µM, the TGI [22] was 17.2 µM and the GI50 [23] was 2.53 µM. The TGI [23] was 6.21 µM, the GI50 [24] was 1.82 µM and the TGI [24] was 3.34 µM. The GI50 [25] was 13 µM, the TGI [25] was 31.5 µM and the GI50 [26] was 2.25 µM. It also gave a TGI [26] of 5.32 µM, a GI50 [27] of 3.99 µM and a TGI [27] of 13.6 µM. The GI50 [28] was 3.35 µM, the TGI [28] was 11.3 µM and the GI50 [29] was 6.13 µM. For the same compound, the TGI [29] was 22.4 µM, the GI50 [30] was 2.59 µM and the TGI [30] was 11.1 µM. It also gave a GI50 [31] of 2.38 µM, a TGI [31] of 7.11 µM and a GI50 [32] of 1.92 µM. The TGI [32] was 3.72 µM, the GI50 [33] was 4.59 µM and the TGI [33] was 17.2 µM. For the same compound, the GI50 [34] was 11.3 µM, the TGI [34] was 26.3 µM and the GI50 [35] was 7.33 µM. For the same compound, the TGI [35] was 20.2 µM, the GI50 [36] was 3.69 µM and the TGI [36] was 13.2 µM. The GI50 [37] was 2.47 µM, the TGI [37] was 5.87 µM and the GI50 [38] was 5.78 µM. For the same compound, the TGI [38] was 22.3 µM, the GI50 [39] was 1.92 µM and the TGI [39] was 3.55 µM. For the same compound, the GI50 [40] was 12 µM, the TGI [40] was 26.3 µM and the GI50 [41] was 3.66 µM. For the same compound, the TGI [41] was 37.4 µM, the GI50 [42] was 3.48 µM and the TGI [42] was 13.7 µM. It also gave a GI50 [43] of 8.5 µM, a TGI [43] of 22.1 µM and a GI50 [44] of 3.37 µM. For the same compound, the TGI [44] was 11.3 µM, the GI50 [45] was 16.5 µM and the TGI [45] was 30.9 µM. For the same compound, the GI50 [46] was 2.45 µM, the TGI [46] was 6.28 µM and the GI50 [47] was 4.76 µM. The TGI [47] was 26.8 µM, the GI50 [48] was 2.69 µM and the TGI [48] was 7.29 µM. The GI50 [49] was 2.94 µM, the TGI [49] was 8.41 µM and the GI50 [50] was 2.87 µM. For the same compound, the TGI [50] was 8.95 µM, the GI50 [51] was 15 µM and the TGI [51] was 28.8 µM. The GI50 [52] was 1.39 µM, the TGI [52] was 3.13 µM and the GI50 [53] was 2.46 µM. The TGI [53] was 7.31 µM, the GI50 [54] was 3.11 µM and the TGI [54] was 9.84 µM. For the same compound, the GI50 [55] was 2.41 µM, the TGI [55] was 5.91 µM and the GI50 [56] was 2.38 µM. It also gave a TGI [56] of 7.22 µM, a GI50 [57] of 4.97 µM and a TGI [57] of 18 µM.
